Where “and” joins values, the source holds several entries; their conditions need not be identical. Equal entries are not always repeated.
Assays:
[1] = system: pregnant guinea pigs (preterm delivery); experiment: PGE2-induced preterm delivery in pregnant guinea pigs; format: in vivo, Hartley guinea pigs; conditions: sacrifice day 48
Description: Pregnant guinea pigs, another model of pregnancy are also utilized as they more closely resemble the endocrine control of human pregnancy with progesterone levels in pregnancy maintained by the placenta as opposed to the ovaries, which is observed in pregnant rats.
Pregnant Hartley guinea pigs arrived at our facilities at 31-35 days gestation and housed in pairs, with free access to food and water and also maintained on a constant 12-hour light-dark cycle. The animals were euthanized with a combination of xylazine (Gemini; Burns Veterinary Supply Inc, Rockville Center, N.Y.) and ketamine HCL (Ketaset; Fort Dodge Laboratories Inc, Fort Dodge, Iowa). All procedures were approved by the Animal Care and Use Committee of the St. Joseph's Hospital and Medical Center in Phoenix, Ariz.
Pregnant guinea pigs (N=4-6 per group) were allocated into 4 groups (Vehicle (v) only, TMG only, PGE2 only, PGE2+TMG). PGE2 administration (3 mg/day s.c, v=saline) began daily on day 46 to day 47 of gestation. TMG administration (4 mg/day s.c v=BB:CO) began daily on day 44 until day 47 of gestation. All guinea pigs were sacrificed on day 48.

[2] = target: T1, estrogen receptor (Homo sapiens, UniProt P03372); conditions: cited from earlier work
T1 sequence (P03372 1-595): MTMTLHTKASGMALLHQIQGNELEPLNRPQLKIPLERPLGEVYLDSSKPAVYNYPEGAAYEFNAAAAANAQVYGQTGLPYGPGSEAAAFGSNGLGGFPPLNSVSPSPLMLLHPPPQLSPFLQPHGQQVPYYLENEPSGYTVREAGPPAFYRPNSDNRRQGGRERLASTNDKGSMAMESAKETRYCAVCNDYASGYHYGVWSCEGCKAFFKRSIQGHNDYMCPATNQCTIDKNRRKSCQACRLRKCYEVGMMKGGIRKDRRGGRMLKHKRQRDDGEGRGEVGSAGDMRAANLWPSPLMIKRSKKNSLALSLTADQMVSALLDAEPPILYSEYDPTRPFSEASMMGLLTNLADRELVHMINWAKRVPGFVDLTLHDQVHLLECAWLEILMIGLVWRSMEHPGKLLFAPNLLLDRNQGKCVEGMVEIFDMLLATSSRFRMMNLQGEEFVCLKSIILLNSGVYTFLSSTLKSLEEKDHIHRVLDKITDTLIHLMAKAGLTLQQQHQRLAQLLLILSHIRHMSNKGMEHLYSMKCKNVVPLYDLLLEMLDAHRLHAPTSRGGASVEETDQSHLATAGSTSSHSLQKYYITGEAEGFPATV

[3] = system: offspring of TMG-treated rats; experiment: Fertility of offspring of TMG-treated pregnant rats; format: in vivo, rat; conditions: offspring bred at 5 months with untreated partners, n=6 per sex
Description: To determine the effects of TMG on fertility the following procedure was followed. When pups from TMG-treated pregnant rats were of breeding age (5 months) the females were placed with normal (untreated) males for 6 days. Similarly, male pups from TMG-treated rats were placed with normal (untreated) females for 6 days.

[4] = target: T2, androgen receptor (Homo sapiens, UniProt P10275); conditions: cited from earlier work
T2 sequence (P10275 1-920): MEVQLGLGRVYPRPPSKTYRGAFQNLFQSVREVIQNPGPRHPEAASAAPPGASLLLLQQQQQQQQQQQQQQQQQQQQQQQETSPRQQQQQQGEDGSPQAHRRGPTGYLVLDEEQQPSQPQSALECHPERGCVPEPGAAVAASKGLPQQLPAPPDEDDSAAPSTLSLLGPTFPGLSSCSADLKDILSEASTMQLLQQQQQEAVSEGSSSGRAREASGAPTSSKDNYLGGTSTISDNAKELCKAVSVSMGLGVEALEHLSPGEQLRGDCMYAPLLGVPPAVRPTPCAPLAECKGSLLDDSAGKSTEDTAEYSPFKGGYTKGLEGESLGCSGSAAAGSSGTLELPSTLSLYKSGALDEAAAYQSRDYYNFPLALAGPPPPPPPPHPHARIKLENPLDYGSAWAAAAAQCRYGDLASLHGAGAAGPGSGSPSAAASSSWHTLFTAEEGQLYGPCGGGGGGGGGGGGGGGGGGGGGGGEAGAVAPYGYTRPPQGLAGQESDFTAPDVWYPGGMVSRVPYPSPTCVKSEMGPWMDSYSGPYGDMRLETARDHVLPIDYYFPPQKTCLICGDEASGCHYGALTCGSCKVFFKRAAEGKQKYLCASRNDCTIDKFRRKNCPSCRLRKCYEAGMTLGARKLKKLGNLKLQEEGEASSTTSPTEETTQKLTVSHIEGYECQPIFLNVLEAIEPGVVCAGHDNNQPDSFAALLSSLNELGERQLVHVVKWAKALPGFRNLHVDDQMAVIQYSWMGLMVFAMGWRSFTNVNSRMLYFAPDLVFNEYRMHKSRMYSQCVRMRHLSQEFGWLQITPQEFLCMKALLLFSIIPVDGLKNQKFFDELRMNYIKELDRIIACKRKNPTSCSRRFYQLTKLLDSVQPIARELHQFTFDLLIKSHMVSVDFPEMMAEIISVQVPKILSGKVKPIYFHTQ

[5] = target: T3, glucocorticoid receptor (Homo sapiens, UniProt P04150); conditions: cited from earlier work
T3 sequence (P04150 1-777): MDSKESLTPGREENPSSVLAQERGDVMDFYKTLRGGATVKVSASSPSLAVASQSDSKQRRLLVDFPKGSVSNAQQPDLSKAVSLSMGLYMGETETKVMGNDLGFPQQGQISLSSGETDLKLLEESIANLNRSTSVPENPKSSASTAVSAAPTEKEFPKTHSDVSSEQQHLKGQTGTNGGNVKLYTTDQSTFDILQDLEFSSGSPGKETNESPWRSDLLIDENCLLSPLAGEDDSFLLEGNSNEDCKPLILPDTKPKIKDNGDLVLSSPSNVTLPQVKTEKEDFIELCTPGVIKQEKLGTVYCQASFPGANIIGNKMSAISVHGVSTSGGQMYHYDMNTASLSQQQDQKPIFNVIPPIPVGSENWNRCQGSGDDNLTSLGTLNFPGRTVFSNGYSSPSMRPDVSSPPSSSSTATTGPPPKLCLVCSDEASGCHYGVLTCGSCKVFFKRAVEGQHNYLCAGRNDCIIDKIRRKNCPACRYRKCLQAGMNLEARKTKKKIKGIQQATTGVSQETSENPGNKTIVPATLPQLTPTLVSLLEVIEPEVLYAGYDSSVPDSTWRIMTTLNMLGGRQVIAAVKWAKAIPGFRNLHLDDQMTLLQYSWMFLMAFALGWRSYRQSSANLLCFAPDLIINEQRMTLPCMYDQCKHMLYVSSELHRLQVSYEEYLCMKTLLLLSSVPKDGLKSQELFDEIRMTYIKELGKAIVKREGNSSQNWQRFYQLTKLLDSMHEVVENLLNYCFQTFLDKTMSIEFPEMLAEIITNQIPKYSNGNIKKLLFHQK

fertility of male and female offspring of treated rats [3]: not compromised
SMILES: C[C@H](O)C(=O)[C@@]1(C)CC[C@H]2[C@@H]3CCC4=CC(=O)CCC4=C3CC[C@@]21C [TMG, trimegestone]
guinea pigs delivered (preterm) / treated, substance alone ([1]; TMG 4 mg/day s.c. days 44-47, PGE2 3 mg/day days 46, 47): 1/4
guinea pigs delivered (preterm) / treated, TMG plus PGE2 ([1]; TMG 4 mg/day s.c. days 44-47 and PGE2 3 mg/day days 46-47): None and 2/6
affinity for the estrogen receptor [2]: no measurable affinity
affinity to the androgen receptor [4]: low affinity
affinity to the glucocorticoid receptor [5]: low affinity

Reference: patent US9271991B2, “Trimegestone (TMG) for treatment of preterm birth” (Dignity Health, priority 2010, dated 2016)
